Source: patent US6121241A, “Anticoagulant peptide aldehyde derivatives” (Gyogyszerkutato Intezet Kft., priority 1996, dated 2000)
Like-named read-outs stand apart in the source and are kept apart here.

What was measured:
[1] = tested on: whole blood clotting time (WBCT); experiment: Ex vivo whole blood clotting time (WBCT) in rabbits after p.o. dosing; set-up: species or system New Zealand white rabbits; conditions: p.o. 5 mg/kg
Experimental: (§1) The anticoagulant and platelet aggregation inhibiting effect of the compounds of general formula (I) was studied In New Zealand white rabbits ex vivo according to D. Bagdy et al [Thromb. Haemost 67. 357 (1992). The compounds were dissolved in buffered isotonic saline solution and administered i.v. (0,04-5.0 mg/kg) or by infusion (0.25-5.0 mg/kg/h) or subcutaneously (0.5-6.0 mg/kg) or p.o. (2.5-20 mg/kg). The effect of the compounds was detectable already within 30 minutes following p.o. administration, peak values were attained after 60-180 minutes and the therapeutic level was maintained dose-dependently for 3→6 hours.
(§2) The in vivo effect of D-cHga Pro-Arg-H (1) is presented in detail in Tables 5 and 6. The corresponding values of C1 are listed as controls. The compound was administered p.o. in doses of 5 mg/kg. The blood samples drawn from the caudal vein in every 30-60 minutes were analyzed. The whole blood clotting time (WBCT) and the inhibition of thrombin-induced blood platelet aggregation (PAI) were determined. The activated partial thromboplastin time (APTT) and the thrombin time (TT) in the citrate plasma obtained from the blood sample were also measured. The APTT and TT values are compiled in Table 5 and the WBCT and PAI values in Table 6.

[2] = target: tissue plasminogen activator (tPA) (Homo sapiens, UniProt P00750); experiment: Fibrin-plate method, plasmin formation induced by tPA; format: biochemical; conditions: for IC50: fibrin-plate method, hydrolyzed area reduced by 50%
Text: (§3) The inhibitory effect of the new compounds of the invention on plasmin (PL) as well as on plasmin formation induced by tissue plasminagen activator (tPA) and urokinase (UK) was studied by the […] [D. Bagdy et al.; Thromb. Haemost. 67, 325 (1992)]. Compounds C1 and C3 served as controls. […] V. Jackson et al., J. Cardiovasc. Pharmacol. 21, 587 (1993)].
(§4) ^a IC50 = peptide concentration (mM) where the hydrolyzed area o
(§5) the fibrin plate is reduced by 50% compared to the control

plasmin (PL) = plasmin (PL) (Homo sapiens, UniProt P00747); experiment: Fibrin-plate method, plasmin; format: biochemical; conditions: for IC50: fibrin-plate method, hydrolyzed area reduced by 50%
Text: as §3, §4, §5

[3] = tested on: citrate plasma coagulation (APTT); experiment: Activated partial thromboplastin time (APTT) plasma clotting test; format: biochemical
Experimental: Anticoagutant activity (i.e. inhibition of the proteolytic reactions in the process) is measured by anticoagulant tests, e.g. by the thrombin time (TT), activated partial thromboplastin time (APTT) and prothrombin time (PT) tests [E. J. W. Bovie et al; Mayo Clinic Laboratory Manual of Hemostasis; W. B. Sanuders Co., Philadelphia (1971)]. Plasma, inhibited in spontaneous coagulation, e.g. citrate-plasma, is made to coagulate and the required coagulation time is measured. Upon the action of anticoagulants the coagulation time is prolonged proportionally to the inhibition of the reaction(s) in the process. The anticoagulant effect can be characterized by the substance concentration required to double the coagulation time compared to the control (IC50). The effect of anticoagulants on individual coagulant proteases is measured by the amidolytic method [R. Lottenberg et al., Methods in Enzymol. 80, 341 (1981); G. Cleason, Blood Coagulation and Fibrinolysis 5, 411 (1994)]. The isolated active factor (e.g. thrombin, fXa) and its chromogen or fluorogen peptide-amide substrate are reacted in the presence or absence of the inhibitor, resp. The enzyme inhibiting action is characterized by the inhibitory constant (IC50) measured during amidolysis.
In the TT test coagulation is initiated by the thrombin added to the citrate plasma. In the system 22 pmol/mL of thrombin is functioning and in the presence of plasma components its inhibition can be measured on the fibrinogen (one of the natural substrates of thrombin) present In the APTT and PT tests the full coagulation process is made to proceed. Depending on the activator fX is activated by the extrinsic or intrinsic pathway. The generated fXa activates prothrombin to thrombin which, in turn, triggers plasma coagulation. In the test the coagulation time is prolonged if the enzymes or one of them is inhibited by the inhibitor. In the APTT and PT tests at most 40 pmole/ml Xa is generated (this is the full amount of factor X present in both systems) while 150 pmole/ml (APTT) and 350 pmole/ml (PT) are generated from thrombin [B Kaiser et al., Thromb. Res. 65, 157 (1992)].
The in vitro anticoagulant effect of the compounds of general formula (I) was measured by the prothrombin time (PT), activated partial thromboplastin time (APTT) and thrombin time (TT) tests [D. Bagdy et at., Thromb. Haemost. 67, 325 (1992)]. The Xa-factor-inhibiting effect of the compounds was also determined by using the Bz-Ile-Glu-Gly-Arg-pNA chromogen substrate (see method M6).

urokinase (UK) = urokinase (UK) (Homo sapiens, UniProt P00749); experiment: Fibrin-plate method, plasmin formation induced by urokinase; format: biochemical; conditions: for IC50: fibrin-plate method, hydrolyzed area reduced by 50%
Text: as §3, §4, §5

[4] = tested on: thrombin-induced blood platelet aggregation; experiment: Ex vivo inhibition of thrombin-induced blood platelet aggregation (PAI) in rabbits after p.o. dosing; set-up: species or system New Zealand white rabbits; conditions: p.o. 5 mg/kg
Experimental: as §1, §2

[5] = target: T1, fibrin-gel bound thrombin (Homo sapiens, UniProt P00734); experiment: Inhibition of thrombin bound to fibrin-gel (methods M4, M5); format: biochemical; conditions: Tos-Gly-Pro-Arg-pNA substrate
T1 construct: Here prothrombin is converted to thrombin; purchased SIGMA
Experimental: The plasma clot was obtained by the recalcification of platelet-rich human citrate plasma and fibrin gel by the coagulation of human fibrinogen with human thrombin Z-D-Arg-Gly-Arg-pNA and Tos Gly-Pro-Arg-pNA were used as substrates for measuring the activity of factor Xa and thrombin (methods M1-M5).
Preparation of Fibrin-Gel
a) 200 μL of 6 mg/mL human fibrinogen (SIGMA), 25 μL of 25 NIH U/mL human thrombin (SIGMA) and 40 μL of 100 mM calcium chloride solution are placed in each reaction vessel and the mixtures are stored for one hour at 20-22° C. The fibrin formed is rinsed mildly with 3×2 ml of isotonic saline solution followed by sedimentation to remove the thrombin content of the solution. The efficacy of rinsing is controlled by the process described in Method M1, point c).
Assay of the Inhibition of Thrombin Bound to Fibrin-Gel
a) 0.1-1.0-10 and 100 μg/ml solutions are prepared with Hepes/NaCl buffer (0.01 M Hepes and 0.1 M sodium chloride, pH=7.4).
b) Thereafter the procedure described in Method M3, point b) is followed.

[6] = related to the activity of C1 (1/IC50 = 1)

plasmin (PL), sequence (P00747 581-810 limits assumed, species assumed): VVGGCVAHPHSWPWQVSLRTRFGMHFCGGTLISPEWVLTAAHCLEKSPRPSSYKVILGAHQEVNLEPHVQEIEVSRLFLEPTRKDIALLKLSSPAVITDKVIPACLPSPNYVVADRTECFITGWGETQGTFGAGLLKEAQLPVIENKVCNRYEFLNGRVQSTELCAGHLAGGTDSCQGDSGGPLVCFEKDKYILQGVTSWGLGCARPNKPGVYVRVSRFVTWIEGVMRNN
plasmin (PL), sequence (P00747 97-580 partner limits assumed, species assumed): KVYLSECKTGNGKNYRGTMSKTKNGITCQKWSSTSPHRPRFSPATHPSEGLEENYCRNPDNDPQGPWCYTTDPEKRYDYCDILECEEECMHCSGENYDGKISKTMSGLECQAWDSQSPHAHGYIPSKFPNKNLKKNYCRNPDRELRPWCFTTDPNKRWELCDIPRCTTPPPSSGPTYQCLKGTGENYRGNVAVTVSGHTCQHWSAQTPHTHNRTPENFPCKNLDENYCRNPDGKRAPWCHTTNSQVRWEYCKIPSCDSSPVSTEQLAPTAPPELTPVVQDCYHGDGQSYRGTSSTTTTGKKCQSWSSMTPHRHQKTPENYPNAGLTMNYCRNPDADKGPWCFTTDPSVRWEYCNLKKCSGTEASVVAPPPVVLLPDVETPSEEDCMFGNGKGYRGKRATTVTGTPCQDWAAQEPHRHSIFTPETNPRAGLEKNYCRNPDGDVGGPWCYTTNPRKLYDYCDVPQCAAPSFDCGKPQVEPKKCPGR
tissue plasminogen activator (tPA), sequence (P00750 36-562, species assumed): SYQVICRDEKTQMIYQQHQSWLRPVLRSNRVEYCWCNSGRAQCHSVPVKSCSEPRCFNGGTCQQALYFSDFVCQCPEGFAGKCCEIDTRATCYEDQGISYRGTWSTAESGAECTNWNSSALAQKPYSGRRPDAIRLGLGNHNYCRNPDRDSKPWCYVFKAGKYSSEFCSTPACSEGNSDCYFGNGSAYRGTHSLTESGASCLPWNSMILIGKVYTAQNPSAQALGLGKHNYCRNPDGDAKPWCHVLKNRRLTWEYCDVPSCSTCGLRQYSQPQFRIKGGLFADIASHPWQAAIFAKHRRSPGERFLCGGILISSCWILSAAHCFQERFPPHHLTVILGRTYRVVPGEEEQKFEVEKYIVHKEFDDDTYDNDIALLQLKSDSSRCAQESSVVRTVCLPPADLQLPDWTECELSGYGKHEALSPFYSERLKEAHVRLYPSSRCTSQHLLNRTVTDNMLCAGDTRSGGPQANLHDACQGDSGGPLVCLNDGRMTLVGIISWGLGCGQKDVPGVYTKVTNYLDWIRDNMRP

Row | Compound | WBCT relative clotting time ([1]; 0 min) | WBCT relative clotting time ([1]; 30 min) | WBCT relative clotting time ([1]; 45 min) | WBCT relative clotting time ([1]; 60 min) | WBCT relative clotting time ([1]; 90 min) | WBCT relative clotting time ([1]; 120 min) | WBCT relative clotting time ([1]; 180 min) | WBCT relative clotting time ([1]; 240 min) | IC50 [2] [µM] | IC50 (plasmin (PL)) [µM] | IC50 (urokinase (UK)) [µM] | PAI(%) ([4]; 0 min) | PAI(%) ([4]; 30 min) | PAI(%) ([4]; 45 min) | PAI(%) ([4]; 60 min) | PAI(%) ([4]; 90 min) | PAI(%) ([4]; 120 min) | PAI(%) ([4]; 180 min) | PAI(%) ([4]; 240 min) | IC50 [5] [µM] | other results
1 | N=C(N)NCCC[C@@H](C=O)NC(=O)[C@H]1CCCN1C(=O)C(O)C1CCCCCC1.N=C(N)NCCC[C@@H](C=O)NC(=O)[C@H]1CCCN1C(=O)C(O)C1CCCCCC1.O=S(=O)(O)O (stereo partly drawn) [Compound 1, D-2-Cycloheptyl-2-hydroxyacetyl-L-prolyl-L-arginine aldehyde hemisulfate] | 1.0 | 1.80 ± 0.36 | 2.03 ± 0.35 | 1.98 ± 0.30 | 1.78 ± 0.26 | 1.52 ± 0.13 | 1.29 ± 0.07 | 1.13 ± 0.04 | 74 | 83 | 120 | 0 | 71.0 ± 19.4 | 74.0 ± 13.9 | 91.0 ± 4.5 | 93.0 ± 3.5 | 92.4 ± 6.5 | 71.6 ± 19.8 | 49.4 ± 21.5 | 0.21 | B: relative efficacy, tPA [2]: 1.8; times lower activity than compound C3, second enzyme (tPA) ([2]; versus C3 of Table 4): 12; B: relative efficacy, PL (plasmin (PL)): 0.6; times lower activity than compound C3, first enzyme (PL) (plasmin (PL); versus C3 of Table 4): 7.5; IC50 ([3]; Table 2, concentration doubling clotting time, read-out: A: IC50, APTT): 0.37 µM; B: relative efficacy, UK (urokinase (UK)): 0.7; times lower activity than compound C3, third enzyme (UK) (urokinase (UK); versus C3 of Table 4): 39
2 | CN[C@H](Cc1ccccc1)C(=O)N1CCC[C@H]1C(=O)N[C@H](C=O)CCCNC(=N)N [Compound C1, D-MePhe-Pro-Arg-H] | 1.0 | 1.07 ± 0.13 | 1.26 ± 0.07 | 1.55 ± 0.17 | 1.61 ± 0.34 | 1.45 ± 0.21 | 1.44 ± 0.08 | 1.22 ± 0.08 | 132 | 54 | 82 | 0 | 52.8 ± 14.7 | 58.4 ± 15.6 | 54.2 ± 11.6 | 83.2 ± 8.9 | 75.2 ± 12.3 | 47.5 ± 20.9 | 32.2 ± 16.0 | 0.3 | B: relative efficacy, tPA [2, 6]: 1.0; B: relative efficacy, PL (plasmin (PL); [6]): 1.0; IC50 ([3]; read-out: concentration doubling the clotting time in the APTT test): 0.622 µM; B: relative efficacy, UK (urokinase (UK); [6]): 1.0
